± gives the expanded uncertainty stated by the source.
Test: xn = mol fraction of the nth substance listed
Conditions: Gas, Burnett expansion method

FC(C(F)(F)F)C(F)(F)F [1,1,1,2,3,3,3-heptafluoropropane] + FCF
Conditions | mass density [kg/m3]
310 K, 149.52 kPa, x2 = 0.2648 | 8.291 ± 0.013
310 K, 189.1 kPa, x2 = 0.5155 | 8.255 ± 0.011
310 K, 204.07 kPa, x2 = 0.2648 | 11.439 ± 0.014
310 K, 207.98 kPa, x2 = 0.7809 | 6.449 ± 0.008
310 K, 258.01 kPa, x2 = 0.5155 | 11.389 ± 0.012
310 K, 277.27 kPa, x2 = 0.2648 | 15.782 ± 0.015
310 K, 284.06 kPa, x2 = 0.7809 | 8.897 ± 0.009
310 K, 350.46 kPa, x2 = 0.5155 | 15.712 ± 0.013
310 K, 374.4 kPa, x2 = 0.2648 | 21.774 ± 0.018
310 K, 386.48 kPa, x2 = 0.7809 | 12.274 ± 0.01
310 K, 473.07 kPa, x2 = 0.5155 | 21.676 ± 0.016
310 K, 501.26 kPa, x2 = 0.2648 | 30.041 ± 0.022
310 K, 523.12 kPa, x2 = 0.7809 | 16.934 ± 0.013
310 K, 633.01 kPa, x2 = 0.5155 | 29.904 ± 0.021
310 K, 662.59 kPa, x2 = 0.2648 | 41.446 ± 0.028
310 K, 702.73 kPa, x2 = 0.7809 | 23.363 ± 0.016
310 K, 836.5 kPa, x2 = 0.5155 | 41.255 ± 0.026
310 K, 932.7 kPa, x2 = 0.7809 | 32.232 ± 0.022
310 K, 1221.3 kPa, x2 = 0.7809 | 44.426 ± 0.03
310 K, 1562.6 kPa, x2 = 0.7809 | 61.291 ± 0.038
320 K, 154.66 kPa, x2 = 0.2648 | 8.285 ± 0.012
320 K, 195.61 kPa, x2 = 0.5155 | 8.251 ± 0.01
320 K, 211.27 kPa, x2 = 0.2648 | 11.431 ± 0.013
320 K, 215.08 kPa, x2 = 0.7809 | 6.445 ± 0.008
320 K, 267.14 kPa, x2 = 0.5155 | 11.383 ± 0.011
320 K, 287.44 kPa, x2 = 0.2648 | 15.771 ± 0.015
320 K, 294.06 kPa, x2 = 0.7809 | 8.892 ± 0.009
320 K, 363.38 kPa, x2 = 0.5155 | 15.704 ± 0.013
320 K, 388.88 kPa, x2 = 0.2648 | 21.758 ± 0.018
320 K, 400.53 kPa, x2 = 0.7809 | 12.268 ± 0.01
320 K, 491.5 kPa, x2 = 0.5155 | 21.665 ± 0.016
320 K, 522.08 kPa, x2 = 0.2648 | 30.019 ± 0.022
320 K, 543.05 kPa, x2 = 0.7809 | 16.926 ± 0.013
320 K, 659.5 kPa, x2 = 0.5155 | 29.889 ± 0.02
320 K, 693.04 kPa, x2 = 0.2648 | 41.416 ± 0.028
320 K, 731.28 kPa, x2 = 0.7809 | 23.351 ± 0.016
320 K, 875.19 kPa, x2 = 0.5155 | 41.235 ± 0.027
320 K, 904.5 kPa, x2 = 0.2648 | 57.14 ± 0.036
320 K, 974.36 kPa, x2 = 0.7809 | 32.216 ± 0.021
320 K, 1142.5 kPa, x2 = 0.5155 | 56.888 ± 0.034
320 K, 1282.2 kPa, x2 = 0.7809 | 44.404 ± 0.029
320 K, 1653.9 kPa, x2 = 0.7809 | 61.261 ± 0.041
320 K, 2072.7 kPa, x2 = 0.7809 | 84.517 ± 0.053
330 K, 159.77 kPa, x2 = 0.2648 | 8.281 ± 0.012
330 K, 202.1 kPa, x2 = 0.5155 | 8.247 ± 0.01
330 K, 218.42 kPa, x2 = 0.2648 | 11.425 ± 0.013
330 K, 222.17 kPa, x2 = 0.7809 | 6.442 ± 0.008
330 K, 276.22 kPa, x2 = 0.5155 | 11.377 ± 0.011
330 K, 297.52 kPa, x2 = 0.2648 | 15.763 ± 0.015
330 K, 303.95 kPa, x2 = 0.7809 | 8.888 ± 0.008
330 K, 376.17 kPa, x2 = 0.5155 | 15.696 ± 0.013
330 K, 403.18 kPa, x2 = 0.2648 | 21.748 ± 0.017
330 K, 414.44 kPa, x2 = 0.7809 | 12.262 ± 0.01
330 K, 509.64 kPa, x2 = 0.5155 | 21.654 ± 0.016
330 K, 542.59 kPa, x2 = 0.2648 | 30.004 ± 0.021
330 K, 562.74 kPa, x2 = 0.7809 | 16.917 ± 0.012
330 K, 685.57 kPa, x2 = 0.5155 | 29.874 ± 0.02
330 K, 722.83 kPa, x2 = 0.2648 | 41.396 ± 0.027
330 K, 759.44 kPa, x2 = 0.7809 | 23.34 ± 0.016
330 K, 913.06 kPa, x2 = 0.5155 | 41.214 ± 0.026
330 K, 948.75 kPa, x2 = 0.2648 | 57.112 ± 0.036
330 K, 1015.2 kPa, x2 = 0.7809 | 32.2 ± 0.021
330 K, 1198.4 kPa, x2 = 0.5155 | 56.859 ± 0.035
330 K, 1218.7 kPa, x2 = 0.2648 | 78.795 ± 0.048
330 K, 1341.7 kPa, x2 = 0.7809 | 44.382 ± 0.028
330 K, 1540 kPa, x2 = 0.5155 | 78.443 ± 0.047
330 K, 1742.4 kPa, x2 = 0.7809 | 61.23 ± 0.04
330 K, 2206.8 kPa, x2 = 0.7809 | 84.475 ± 0.054
340 K, 164.86 kPa, x2 = 0.2648 | 8.277 ± 0.012
340 K, 208.54 kPa, x2 = 0.5155 | 8.243 ± 0.01
340 K, 225.54 kPa, x2 = 0.2648 | 11.42 ± 0.013
340 K, 229.21 kPa, x2 = 0.7809 | 6.439 ± 0.007
340 K, 285.24 kPa, x2 = 0.5155 | 11.372 ± 0.011
340 K, 307.52 kPa, x2 = 0.2648 | 15.755 ± 0.014
340 K, 313.78 kPa, x2 = 0.7809 | 8.884 ± 0.008
340 K, 388.85 kPa, x2 = 0.5155 | 15.688 ± 0.013
340 K, 417.35 kPa, x2 = 0.2648 | 21.737 ± 0.017
340 K, 428.24 kPa, x2 = 0.7809 | 12.256 ± 0.01
340 K, 527.64 kPa, x2 = 0.5155 | 21.643 ± 0.016
340 K, 562.85 kPa, x2 = 0.2648 | 29.989 ± 0.021
340 K, 582.27 kPa, x2 = 0.7809 | 16.909 ± 0.012
340 K, 711.31 kPa, x2 = 0.5155 | 29.859 ± 0.02
340 K, 752.13 kPa, x2 = 0.2648 | 41.375 ± 0.027
340 K, 787.28 kPa, x2 = 0.7809 | 23.328 ± 0.016
340 K, 950.24 kPa, x2 = 0.5155 | 41.194 ± 0.026
340 K, 991.76 kPa, x2 = 0.2648 | 57.084 ± 0.035
340 K, 1055.4 kPa, x2 = 0.7809 | 32.184 ± 0.021
340 K, 1252.9 kPa, x2 = 0.5155 | 56.831 ± 0.035
340 K, 1283.1 kPa, x2 = 0.2648 | 78.756 ± 0.049
340 K, 1399.9 kPa, x2 = 0.7809 | 44.36 ± 0.028
340 K, 1614 kPa, x2 = 0.2648 | 108.656 ± 0.065
340 K, 1621.4 kPa, x2 = 0.5155 | 78.404 ± 0.048
340 K, 1828.5 kPa, x2 = 0.7809 | 61.2 ± 0.039
340 K, 2042.8 kPa, x2 = 0.5155 | 108.166 ± 0.065
340 K, 2336.2 kPa, x2 = 0.7809 | 84.433 ± 0.053
350 K, 169.93 kPa, x2 = 0.2648 | 8.273 ± 0.011
350 K, 214.96 kPa, x2 = 0.5155 | 8.239 ± 0.01
350 K, 232.62 kPa, x2 = 0.2648 | 11.414 ± 0.012
350 K, 236.22 kPa, x2 = 0.7809 | 6.436 ± 0.007
350 K, 294.24 kPa, x2 = 0.5155 | 11.366 ± 0.011
350 K, 317.47 kPa, x2 = 0.2648 | 15.747 ± 0.014
350 K, 323.59 kPa, x2 = 0.7809 | 8.879 ± 0.008
350 K, 401.46 kPa, x2 = 0.5155 | 15.68 ± 0.012
350 K, 431.39 kPa, x2 = 0.2648 | 21.726 ± 0.017
350 K, 441.97 kPa, x2 = 0.7809 | 12.25 ± 0.01
350 K, 545.49 kPa, x2 = 0.5155 | 21.633 ± 0.015
350 K, 582.86 kPa, x2 = 0.2648 | 29.974 ± 0.02
350 K, 601.65 kPa, x2 = 0.7809 | 16.901 ± 0.012
350 K, 736.76 kPa, x2 = 0.5155 | 29.844 ± 0.02
350 K, 780.99 kPa, x2 = 0.2648 | 41.355 ± 0.026
350 K, 814.82 kPa, x2 = 0.7809 | 23.317 ± 0.016
350 K, 986.94 kPa, x2 = 0.5155 | 41.173 ± 0.026
350 K, 1033.9 kPa, x2 = 0.2648 | 57.055 ± 0.035
350 K, 1095 kPa, x2 = 0.7809 | 32.168 ± 0.021
350 K, 1306.5 kPa, x2 = 0.5155 | 56.803 ± 0.035
350 K, 1345.8 kPa, x2 = 0.2648 | 78.717 ± 0.048
350 K, 1457.2 kPa, x2 = 0.7809 | 44.338 ± 0.028
350 K, 1700.8 kPa, x2 = 0.5155 | 78.365 ± 0.048
350 K, 1709.1 kPa, x2 = 0.2648 | 108.602 ± 0.067
350 K, 1912.8 kPa, x2 = 0.7809 | 61.169 ± 0.039
350 K, 2092.9 kPa, x2 = 0.2648 | 149.834 ± 0.091
350 K, 2162.7 kPa, x2 = 0.5155 | 108.113 ± 0.069
350 K, 2462 kPa, x2 = 0.7809 | 84.391 ± 0.059
350 K, 2654.5 kPa, x2 = 0.5155 | 149.152 ± 0.091
360 K, 174.96 kPa, x2 = 0.2648 | 8.269 ± 0.011

From the NIST ThermoML archive (doi:10.1021/je7000667)
